Results: PubChem BioAssay (NCI)
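Cells were grown in 96-well plates and exposed to each compound for 48 hours at five concentrations; endpoints were interpolated linearly between bracketing concentrations, or set to the highest concentration if not reached. The concentration for 50% growth inhibition is given as GI50. TGI: total growth inhibition.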

How the values were obtained:
Test in all cases: NCI tumour cell line growth inhibition, 48 h
A498 renal = system: A498 renal
M14 melanoma = system: M14 melanoma
HCT-116 colon = system: HCT-116 colon
ACHN renal = system: ACHN renal
COLO 205 colon = system: COLO 205 colon
NCI-H522 lung = system: NCI-H522 lung
HT29 colon = system: HT29 colon
SW-620 colon = system: SW-620 colon
U251 CNS = system: U251 CNS
RPMI-8226 leukemia = system: RPMI-8226 leukemia

Row | Structure (SMILES) | TGI (A498 renal) [µM] | TGI (M14 melanoma) [µM] | TGI (HCT-116 colon) [µM] | TGI (ACHN renal) [µM] | TGI (COLO 205 colon) [µM] | TGI (NCI-H522 lung) [µM] | TGI (HT29 colon) [µM] | TGI (SW-620 colon) [µM] | TGI (U251 CNS) [µM] | GI50 (M14 melanoma) [µM] | GI50 (HCT-116 colon) [µM] | GI50 (ACHN renal) [µM] | GI50 (COLO 205 colon) [µM] | GI50 (HT29 colon) [µM] | GI50 (SW-620 colon) [µM] | GI50 (RPMI-8226 leukemia) [µM] | TGI (RPMI-8226 leukemia) [µM] | GI50 (U251 CNS) [µM] | GI50 (A498 renal) [µM] | GI50 (NCI-H522 lung) [µM]
1 | COc1cc(OC)c(OC)cc1/C=C/c1ccccn1 | > 10 | > 10 | > 10 | > 10 | > 10 | > 10 | > 10 | > 10 | > 10 |  |  |  |  |  |  |  |  |  |  | 
2 | CC[O-].CC[O-].[O-]c1ccccc1C=NC12CC3CC(CC(C3)C1)C2.[O-]c1ccccc1C=NC12CC3CC(CC(C3)C1)C2.[Ti+4] |  | > 100 | > 100 | > 100 | > 100 |  | > 100 | > 100 | > 100 | > 100 | 39.6 | > 100 | 67.3 | > 100 | > 100 | 57.6 | > 100 | > 100 |  | 
3 | Cc1cccc(-c2nc(=S)[nH][nH]2)c1 | > 100 | > 100 | > 100 | > 100 | > 100 | > 100 | > 100 | > 100 | > 100 |  |  |  |  |  |  |  | > 100 |  |  | 
4 | COCCn1c(Nc2ccc(C(=O)NO)cc2)nc2ccccc21 | 9.17 | 14.9 | 6.54 | 12.9 | 7.88 | 13.6 | > 100 | 7.14 | 18.6 | 3.49 | 2.11 | 2.85 | 2.75 | 2.97 | 2.34 | 3.7 | > 100 | 3.99 | 2.64 | 2.28
5 | CC(=O)Nc1ccc(CC[C@H]2CCC/C=C/[C@@H]3C[C@H](O)C[C@H]3[C@H](O)/C=C/C(=O)O2)cc1 | 0.0475 | > 100 | 0.389 | > 47.2 | 0.283 | 0.654 | 0.951 | 0.597 | > 100 | 0.153 | 0.184 | 0.375 | 0.139 | 0.119 | 0.185 | 0.222 | 0.591 | 0.304 | 0.016 | 0.261
6 | CCOc1cc(/C=C/C(=O)CC(=O)/C=C/c2ccc(OC(=O)CNc3nc4ccc(OC)cc4s3)c(OCC)c2)ccc1OC(=O)CNc1nc2ccc(OC)cc2s1 | 26.2 | 22.5 | 15.1 | 60.2 | 29.3 | 34.4 | 4.8 | 13.2 | 14.5 | 5.18 | 3.02 | 14.2 | 14 | 2.28 | 3.78 | 1.69 | 4.29 | 3.93 | 13.4 | 12.6
7 | O=C(Nc1ccc(Nc2ccc3c(c2)C(=O)c2ccccc2C3=O)c2c1C(=O)c1ccccc1C2=O)c1ccccc1 | > 100 | > 100 | > 100 | > 100 | > 100 | > 42.1 | > 100 | > 100 | 98.7 |  |  |  |  |  |  |  | > 100 |  |  | 
8 | Cc1cc(NC(=O)NCCCOc2ccc(N3C(N)=NC(N)=NC3(C)C)cc2Cl)ccc1S(=O)(=O)F | 99.9 | > 100 | > 100 | > 100 | 17.5 | 25.2 | 53.9 | > 100 | 19.7 | 2.42 | 0.37 | 11.3 | 1.17 | 0.333 | 0.373 | 5.78 | > 100 | 0.492 | 7.94 | 1.11
9 | CC(C)(Sc1cc(C(C)(C)C)c(O)c(C(C)(C)C)c1)Sc1cc(C(C)(C)C)c(O)c(C(C)(C)C)c1 | > 100 | > 100 | > 100 | > 100 | > 100 | > 100 | > 100 | > 100 | > 100 |  |  |  |  |  |  |  | > 100 |  |  | 
10 | COc1ccc(CC(C)NCC(O)c2ccc(O)c(NC=O)c2)cc1 (stereo unspecified) | > 100 | > 100 | > 100 | > 100 | > 100 | > 100 | > 100 | > 100 | > 100 |  |  |  |  |  |  |  | > 100 |  |  | 
11 | Nc1nc(N)c2cc(S(=O)(=O)c3cccc(C(F)(F)F)c3)ccc2n1 |  | > 100 | > 100 | > 100 |  | > 100 | > 100 | > 100 | > 100 | 2 | 1.47 | 4.43 |  | 2.42 | 0.989 | 5.21 | > 100 | 3.52 |  | 3.05
12 | O=c1c2ccccc2c(=O)n2n1-c1cccc(c1)CSSCc1cccc-2c1 |  |  | > 100 | > 100 | > 100 | > 100 |  | > 100 | > 100 |  | > 100 | > 100 | > 100 |  | > 100 | > 100 | > 100 |  |  | > 100
13 | CC(C)N1CCOC(c2ccc(O)c(O)c2)C1 (stereo unspecified) |  | > 100 |  | > 100 | > 100 | > 100 | > 100 | > 100 |  |  |  |  |  |  |  |  | > 100 |  |  | 
14 | CN(C)C(=C1C(Br)=C(Br)C(Br)=C1Br)N(C)C |  | > 100 |  | > 100 | > 100 | 39.9 | > 100 | > 100 | > 100 |  |  |  |  |  |  |  | 76.7 |  |  | 
15 | O=C1CN=C(c2ccccc2)c2ccncc2N1 | > 100 | > 100 | > 100 | > 100 | > 100 | > 100 | > 100 | > 100 | > 100 |  |  |  |  |  |  |  |  |  |  | 
16 | Cc1ccc(/C=C/C(=O)c2ccc(F)cc2)s1 | 11.1 | 26.7 | 3.37 | 4.52 | 19.9 | 3.57 | 4.11 | 3.99 | 11.2 | 7.89 | 1.86 | 2.26 | 6.07 | 2.09 | 1.96 |  |  | 2.85 | 2.69 | 1.71
